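Protocol summary: plate cells (96-well), add compound at 5 concentrations, incubate 48 h, interpolate endpoints linearly. The concentration for full growth arrest is given as TGI.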
Key:
Test in all cases: NCI-60 cell line screen, 48 h
786-0 renal = tested on: 786-0 renal
A498 renal = tested on: A498 renal
A549 NSCLC = tested on: A549 NSCLC
ACHN renal = tested on: ACHN renal
BT-549 breast = tested on: BT-549 breast
CAKI-1 renal = tested on: CAKI-1 renal
CCRF-CEM leukemia = tested on: CCRF-CEM leukemia
COLO 205 colon = tested on: COLO 205 colon
DU-145 prostate = tested on: DU-145 prostate
EKVX NSCLC = tested on: EKVX NSCLC
HCC-2998 colon = tested on: HCC-2998 colon
HCT-116 colon = tested on: HCT-116 colon
HCT-15 colon = tested on: HCT-15 colon
HL-60(TB) leukemia = tested on: HL-60(TB) leukemia
HOP-62 NSCLC = tested on: HOP-62 NSCLC
HOP-92 NSCLC = tested on: HOP-92 NSCLC
HS 578T breast = tested on: HS 578T breast
HT29 colon = tested on: HT29 colon
IGROV1 ovarian = tested on: IGROV1 ovarian
K-562 leukemia = tested on: K-562 leukemia
KM12 colon = tested on: KM12 colon
LOX IMVI melanoma = tested on: LOX IMVI melanoma
M14 melanoma = tested on: M14 melanoma
MALME-3M melanoma = tested on: MALME-3M melanoma
MCF7 breast = tested on: MCF7 breast
MDA-MB-231 breast = tested on: MDA-MB-231 breast
MDA-MB-435 = tested on: MDA-MB-435
MDA-N = tested on: MDA-N
MOLT-4 leukemia = tested on: MOLT-4 leukemia
NCI-H226 lung = tested on: NCI-H226 lung
NCI-H23 lung = tested on: NCI-H23 lung
NCI-H460 lung = tested on: NCI-H460 lung
NCI-H522 lung = tested on: NCI-H522 lung
NCI/ADR-RES ovarian = tested on: NCI/ADR-RES ovarian
OVCAR-3 ovarian = tested on: OVCAR-3 ovarian
OVCAR-4 ovarian = tested on: OVCAR-4 ovarian
OVCAR-5 ovarian = tested on: OVCAR-5 ovarian
OVCAR-8 ovarian = tested on: OVCAR-8 ovarian
PC-3 prostate = tested on: PC-3 prostate
RPMI-8226 leukemia = tested on: RPMI-8226 leukemia
RXF 393 renal = tested on: RXF 393 renal
SF-268 CNS = tested on: SF-268 CNS
SF-295 CNS = tested on: SF-295 CNS
SF-539 CNS = tested on: SF-539 CNS
SK-MEL-28 melanoma = tested on: SK-MEL-28 melanoma
SK-MEL-5 melanoma = tested on: SK-MEL-5 melanoma
SK-OV-3 ovarian = tested on: SK-OV-3 ovarian
SN12C renal = tested on: SN12C renal
SNB-19 CNS = tested on: SNB-19 CNS
SNB-75 CNS = tested on: SNB-75 CNS
SR leukemia = tested on: SR leukemia
SW-620 colon = tested on: SW-620 colon
T-47D breast = tested on: T-47D breast
TK-10 renal = tested on: TK-10 renal
U251 CNS = tested on: U251 CNS
UACC-257 melanoma = tested on: UACC-257 melanoma
UACC-62 melanoma = tested on: UACC-62 melanoma
UO-31 renal = tested on: UO-31 renal
SK-MEL-2 melanoma = tested on: SK-MEL-2 melanoma

## CN(C)Cc1cc(N=Nc2ccccc2Cl)ccc1O
786-0 renal
  TGI: 35.4 µM
A498 renal
  TGI: 26.1 µM
A549 NSCLC
  TGI: 25.3 µM
ACHN renal
  TGI: 33.4 µM
BT-549 breast
  TGI: 85.4 µM
CAKI-1 renal
  TGI: 56.6 µM
CCRF-CEM leukemia
  TGI: 54.2 µM
COLO 205 colon
  TGI: 28.6 µM
DU-145 prostate
  TGI: 71.4 µM
EKVX NSCLC
  TGI: > 100 µM
HCC-2998 colon
  TGI: 26.8 µM
HCT-116 colon
  TGI: > 100 µM
HCT-15 colon
  TGI: 75.5 µM
HL-60(TB) leukemia
  TGI: 29.3 µM
HOP-62 NSCLC
  TGI: 26.2 µM
HOP-92 NSCLC
  TGI: > 100 µM
HS 578T breast
  TGI: 48.4 µM
HT29 colon
  TGI: 33.7 µM
IGROV1 ovarian
  TGI: > 100 µM
K-562 leukemia
  TGI: 38.4 µM
KM12 colon
  TGI: 75.5 µM
LOX IMVI melanoma
  TGI: 25.3 µM
M14 melanoma
  TGI: 44.5 µM
MALME-3M melanoma
  TGI: 25.9 µM
MCF7 breast
  TGI: 33.5 µM
MDA-MB-231 breast
  TGI: 86.4 µM
MDA-MB-435
  TGI: 32.9 µM
MDA-N
  TGI: 33.4 µM
MOLT-4 leukemia
  TGI: 28.3 µM
NCI-H226 lung
  TGI: 40 µM
NCI-H23 lung
  TGI: 83.9 µM
NCI-H460 lung
  TGI: 18.2 µM
NCI-H522 lung
  TGI: 23.5 µM
NCI/ADR-RES ovarian
  TGI: 74.7 µM
OVCAR-3 ovarian
  TGI: 66.9 µM
OVCAR-4 ovarian
  TGI: > 100 µM
OVCAR-5 ovarian
  TGI: 63.2 µM
OVCAR-8 ovarian
  TGI: 25.3 µM
PC-3 prostate
  TGI: > 100 µM
RPMI-8226 leukemia
  TGI: 81.4 µM
RXF 393 renal
  TGI: 60.8 µM
SF-268 CNS
  TGI: > 100 µM
SF-295 CNS
  TGI: 41.2 µM
SF-539 CNS
  TGI: 59.5 µM
SK-MEL-28 melanoma
  TGI: 32.3 µM
SK-MEL-5 melanoma
  TGI: 24.6 µM
SK-OV-3 ovarian
  TGI: > 100 µM
SN12C renal
  TGI: > 100 µM
SNB-19 CNS
  TGI: > 100 µM
SNB-75 CNS
  TGI: 55.8 µM
SR leukemia
  TGI: > 100 µM
SW-620 colon
  TGI: 28 µM
T-47D breast
  TGI: 71.5 µM
TK-10 renal
  TGI: 65.8 µM
U251 CNS
  TGI: 59.3 µM
UACC-257 melanoma
  TGI: 46.3 µM
UACC-62 melanoma
  TGI: 40.9 µM
UO-31 renal
  TGI: 36.5 µM

## c1ccc(CN2CCCN3CCN(CCCN(Cc4ccccc4)CC3)CC2)cc1
786-0 renal
  TGI: > 100 µM
A498 renal
  TGI: > 100 µM
A549 NSCLC
  TGI: > 100 µM
ACHN renal
  TGI: > 100 µM
BT-549 breast
  TGI: > 100 µM
CAKI-1 renal
  TGI: > 100 µM
CCRF-CEM leukemia
  TGI: > 100 µM
COLO 205 colon
  TGI: 57.8 µM
DU-145 prostate
  TGI: > 100 µM
EKVX NSCLC
  TGI: > 100 µM
HCT-116 colon
  TGI: > 100 µM
HCT-15 colon
  TGI: > 100 µM
HL-60(TB) leukemia
  TGI: 82.3 µM
HOP-62 NSCLC
  TGI: > 100 µM
HOP-92 NSCLC
  TGI: > 100 µM
HS 578T breast
  TGI: > 100 µM
HT29 colon
  TGI: > 100 µM
IGROV1 ovarian
  TGI: > 100 µM
K-562 leukemia
  TGI: > 100 µM
KM12 colon
  TGI: > 100 µM
LOX IMVI melanoma
  TGI: > 100 µM
M14 melanoma
  TGI: > 100 µM
MCF7 breast
  TGI: > 100 µM
MDA-MB-231 breast
  TGI: > 100 µM
MDA-MB-435
  TGI: > 100 µM
MDA-N
  TGI: > 100 µM
MOLT-4 leukemia
  TGI: > 100 µM
NCI-H226 lung
  TGI: > 100 µM
NCI-H23 lung
  TGI: > 100 µM
NCI-H460 lung
  TGI: > 100 µM
NCI-H522 lung
  TGI: > 100 µM
NCI/ADR-RES ovarian
  TGI: > 100 µM
OVCAR-3 ovarian
  TGI: > 100 µM
OVCAR-4 ovarian
  TGI: > 100 µM
OVCAR-5 ovarian
  TGI: > 100 µM
OVCAR-8 ovarian
  TGI: > 100 µM
PC-3 prostate
  TGI: > 100 µM
RPMI-8226 leukemia
  TGI: > 100 µM
RXF 393 renal
  TGI: > 100 µM
SF-268 CNS
  TGI: > 100 µM
SF-295 CNS
  TGI: > 100 µM
SF-539 CNS
  TGI: > 100 µM
SK-MEL-2 melanoma
  TGI: 49.9 µM
SK-MEL-28 melanoma
  TGI: > 100 µM
SK-MEL-5 melanoma
  TGI: 36.1 µM
SK-OV-3 ovarian
  TGI: > 100 µM
SN12C renal
  TGI: > 100 µM
SNB-19 CNS
  TGI: > 100 µM
SNB-75 CNS
  TGI: > 100 µM
SR leukemia
  TGI: > 100 µM
SW-620 colon
  TGI: > 100 µM
T-47D breast
  TGI: > 100 µM
TK-10 renal
  TGI: > 100 µM
U251 CNS
  TGI: > 100 µM
UACC-257 melanoma
  TGI: 68.5 µM
UACC-62 melanoma
  TGI: > 100 µM
UO-31 renal
  TGI: > 100 µM

Source: PubChem BioAssay (NCI)
